Data taken from paper PMC6100557, “Quinazolinone-Amino Acid Hybrids as Dual Inhibitors of EGFR Kinase and Tubulin Polymerization” (Molecules : A Journal of Synthetic Chemistry and Natural …, 2018).
Entries after “also recorded” stand apart in the source; their conditions may differ. Read-outs that look alike come from different tables or passages of the source.

What was measured:
MDA-MBA-231 = test: In vitro cytotoxic screening (MTT assay), MDA-MBA-231; format: cell-based; conditions: read-out: IC50 (µM) MDA-MBA-231
Method: (§1) Cells were cultured using reported culture media, incubated for 24 h, treated with different concentrations of tested derivatives and incubated for 48 h. MTT was added to extract the color, which was then measured by ELISA [12].

[1] = system: MCF-7 and MDA-MBA-231 cells; test: Cytotoxic screening on the two cell lines, selectivity MCF-7 versus MDA-MBA-231; format: cell-based; conditions: for Selectivity Indices S1: S1 = IC50 (MCF-7)/IC50 (MDA-MBA-231); for Cell Line (type of selectivity): S1 > S2: more selective to MDA-MBA-231, S2 > S1: more selective to MCF-7; for Selectivity Indices S2: S2 = IC50 (MDA-MBA-231)/IC50 (MCF-7)
Method: as §1

MCF-7 = test: In vitro cytotoxic screening (MTT assay), MCF-7; format: cell-based; conditions: Homo sapiens, read-out: IC50 (µM) MCF-7
Method: as §1

porcine tubulin protein = biological target: T1, porcine tubulin protein (Sus scrofa, UniProt P02550+P02554); test: Tubulin polymerization inhibition assay (CytoDYNAMIX Screen kit); format: biochemical; conditions: absorbance 340 nm, 30 min, 37 °C
T1 construct: purchased Cytoskeleton Inc. BK006P
T1 sequence (P02550 whole entry): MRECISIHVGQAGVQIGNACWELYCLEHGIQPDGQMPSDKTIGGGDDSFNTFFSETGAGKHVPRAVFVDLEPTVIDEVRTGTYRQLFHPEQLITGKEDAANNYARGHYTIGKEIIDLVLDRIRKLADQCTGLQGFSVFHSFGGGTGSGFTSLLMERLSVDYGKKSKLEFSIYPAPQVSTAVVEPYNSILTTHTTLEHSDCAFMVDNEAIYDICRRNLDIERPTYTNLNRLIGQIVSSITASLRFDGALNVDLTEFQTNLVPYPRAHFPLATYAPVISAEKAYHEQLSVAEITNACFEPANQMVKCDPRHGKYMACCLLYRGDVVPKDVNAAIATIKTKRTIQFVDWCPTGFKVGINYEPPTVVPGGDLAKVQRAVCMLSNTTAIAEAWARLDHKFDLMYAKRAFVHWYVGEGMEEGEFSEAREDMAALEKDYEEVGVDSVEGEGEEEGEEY
T1 sequence (P02554 whole entry): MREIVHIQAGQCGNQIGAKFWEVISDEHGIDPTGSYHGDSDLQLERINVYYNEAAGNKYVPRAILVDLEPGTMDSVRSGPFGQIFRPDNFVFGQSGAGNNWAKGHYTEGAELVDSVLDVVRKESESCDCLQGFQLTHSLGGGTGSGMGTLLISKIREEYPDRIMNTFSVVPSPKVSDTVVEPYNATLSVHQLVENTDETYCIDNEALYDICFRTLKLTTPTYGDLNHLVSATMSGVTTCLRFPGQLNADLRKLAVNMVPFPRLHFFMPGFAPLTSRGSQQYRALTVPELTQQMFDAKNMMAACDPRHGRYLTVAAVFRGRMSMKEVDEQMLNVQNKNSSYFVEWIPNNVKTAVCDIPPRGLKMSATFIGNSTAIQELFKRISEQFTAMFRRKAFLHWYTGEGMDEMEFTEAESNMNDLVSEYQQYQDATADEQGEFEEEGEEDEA
Method: Cold porcine tubulin protein (>99% purity) was added to a G-PEM buffer (80 mM PIPES, 2 mM MgCl2, 0.5 mM EGTA, 1 mM GTP, pH 6.9) containing 15% glycerol with or without the identified compounds. […] The absorbance was monitored every minute for 30 min at 340 nm [16, 23].

EGFR kinase = EGFR kinase (Homo sapiens, UniProt P00533); test: EGFR inhibition assay (HTScan EGFR kinase assay kit)
Sequence of EGFR kinase (P00533 672-1210 limits assumed): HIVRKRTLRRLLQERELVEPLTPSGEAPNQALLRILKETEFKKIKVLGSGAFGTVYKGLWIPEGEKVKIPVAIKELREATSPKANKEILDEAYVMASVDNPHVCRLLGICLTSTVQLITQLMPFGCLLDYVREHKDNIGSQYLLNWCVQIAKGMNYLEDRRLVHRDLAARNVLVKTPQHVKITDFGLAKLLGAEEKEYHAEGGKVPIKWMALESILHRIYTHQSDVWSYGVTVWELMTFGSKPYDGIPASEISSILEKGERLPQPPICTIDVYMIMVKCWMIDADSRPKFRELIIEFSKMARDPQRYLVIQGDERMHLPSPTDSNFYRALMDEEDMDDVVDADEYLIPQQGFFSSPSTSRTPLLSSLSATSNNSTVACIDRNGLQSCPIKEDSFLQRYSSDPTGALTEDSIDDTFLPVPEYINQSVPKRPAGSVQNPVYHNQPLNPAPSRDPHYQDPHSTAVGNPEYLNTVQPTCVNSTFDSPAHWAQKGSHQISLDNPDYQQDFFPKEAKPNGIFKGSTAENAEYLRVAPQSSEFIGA
Description: High tech HTScan EGFR kinase assay kits (Cell Signaling Technology, Danvers, MA, USA) were used to measure EGFR kinase activity. The assay was achieved following the manufacturers’ instructions and reported procedures [16, 23].

[2] = MTT assay, 48 h incubation, mean ± SD
[3] = MCF7, MTT assay, 48 h incubation, mean ± SD

Structure (SMILES) | melting point | IC50 (porcine tubulin protein) | IC50 (EGFR kinase) | IC50 (MDA-MBA-231; [2]) | Selectivity Indices S1 [1] | Cell Line (type of selectivity) [1] | Selectivity Indices S2 [1] | IC50 (MCF-7; [3]) | IC50 (MDA-MBA-231; 48 h) | IC50 (MCF-7; MCF7, 48 h)
CC(C)[C@H](N)C(=O)Nn1c(-c2ccc(F)cc2)nc2ccc(F)cc2c1=O [C, (S)-2-amino-N-(6-fluoro-2-(4-fluorophenyl)-4-oxoquinazolin-3(4H)-yl)-3-methylbutanamide] | 242 to 244 °C |  |  | 3.45 ± 0.21 µM | 0.34 ± 0.18 | more selective to MCF-7 than MDA-MBA-231; also recorded: MCF-7 selective | 2.98 ± 0.71 | 1.16 ± 0.05 µM |  | 
C[C@H](N)C(=O)Nn1c(-c2ccc(F)cc2)nc2ccc(F)cc2c1=O [Compound B, (S)-2-amino-N-(6-fluoro-2-(4-fluorophenyl)-4-oxoquinazolin-3(4H)-yl)propanamide] | 238 to 240 °C |  |  | 42.9 ± 2.64 µM | 1.59 ± 0.05 | more selective to MDA-MBA-231 than MCF-7; also recorded: MDA-MBA-231 selective | 0.63 ± 0.23 | 68.5 ± 3.27 µM |  | 
CCC(C)[C@H](N)C(=O)Nn1c(-c2ccc(F)cc2)nc2ccc(F)cc2c1=O (stereo partly drawn) [D, (2S)-2-amino-N-(6-fluoro-2-(4-fluorophenyl)-4-oxoquinazolin-3(4H)-yl)-3-methylpentanamide] | 248 to 250 °C |  |  | 7.49 ± 0.42 µM | 1.51 ± 0.24 | more selective to MDA-MBA-231 than MCF-7; also recorded: MDA-MBA-231 selective | 0.66 ± 0.17 | 11.3 ± 1.25 µM |  | 
C#Cc1cccc(Nc2ncnc3cc(OCCOC)c(OCCOC)cc23)c1 [Erlotinib, erlotinib, reference compound] |  |  |  |  |  |  |  |  | 2.55 ± 0.19 µM | 1.14 µM
N[C@H](CS)C(=O)Nn1c(-c2ccc(F)cc2)nc2ccc(F)cc2c1=O [F, (S)-2-amino-N-(6-fluoro-2-(4-fluorophenyl)-4-oxoquinazolin-3(4H)-yl)-3-mercaptopropanamide] | 220 to 222 °C |  |  | 12.5 ± 5.88 µM | 0.15 ± 0.17 | more selective to MCF-7 than MDA-MBA-231; also recorded: MCF-7 selective | 6.46 ± 0.04 | 1.93 ± 0.08 µM |  | 
O=C(Nn1c(-c2ccc(F)cc2)nc2ccc(F)cc2c1=O)C1CCCN1 (centres unmarked) [H, N-(6-fluoro-2-(4-fluorophenyl)-4-oxoquinazolin-3(4H)-yl)pyrrolidine-2-carboxamide] | 235 to 237 °C |  |  | 12 ± 1.33 µM | 0.11 ± 0.23 | more selective to MCF-7 than MDA-MBA-231; also recorded: MCF-7 selective | 9.34 ± 0.02 | 1.28 ± 0.03 µM |  | 

More lines, main results first:

melting point | IC50 (porcine tubulin protein) | IC50 (EGFR kinase) | Structure (SMILES) | IC50 (MDA-MBA-231; [2]) | Selectivity Indices S1 [1] | Cell Line (type of selectivity) [1] | Selectivity Indices S2 [1] | IC50 (MCF-7; [3]) | IC50 (MDA-MBA-231; 48 h) | IC50 (MCF-7; MCF7, 48 h)
236 to 238 °C |  |  | NCC(=O)Nn1c(-c2ccc(F)cc2)nc2ccc(F)cc2c1=O [A, 2-amino-N-(6-fluoro-2-(4-fluorophenyl)-4-oxoquinazolin-3(4H)-yl)acetamide] | 16.3 ± 1.21 µM | 1.53 ± 0.12 | more selective to MDA-MBA-231 than MCF-7; also recorded: MDA-MBA-231 selective | 0.65 ± 0.05 | 25 ± 1.61 µM |  | 
244 to 246 °C | 6.24 µM | 0.54538 ± 4e-05 µM | N[C@@H](CCC(=O)O)C(=O)Nn1c(-c2ccc(F)cc2)nc2ccc(F)cc2c1=O [Compound E, (S)-4-(6-fluoro-2-(4-fluorophenyl)-4-oxoquinazolin-3(4H)-ylcarbamoyl)-4-aminobutanoic acid] | 0.43 ± 0.02 µM | 28.93 ± 0.08 | more selective to MDA-MBA-231 than MCF-7; also recorded: MDA-MBA-231 selective | 0.03 ± 0.11 | 12.4 ± 5.73 µM |  | 
245 to 247 °C |  | 0.16397 ± 7e-05 µM | N[C@@H](Cc1ccccc1)C(=O)Nn1c(-c2ccc(F)cc2)nc2ccc(F)cc2c1=O [Compound G, (S)-2-amino-N-(6-fluoro-2-(4-fluorophenyl)-4-oxoquinazolin-3(4H)-yl)-3-phenylpropanamide] | 24.7 ± 1.7 µM | 0.02 ± 0.07 | more selective to MCF-7 than MDA-MBA-231; also recorded: MCF-7 selective | 56.07 ± 0.15 | 0.44 ± 0.01 µM |  | 
